# Values quoted from earlier work in US6464981B2, “Therapeutic agent for a cancer and method of screening the same, and health-care auxiliary food” (Orient Cancer Therapy Co., LTD, priority 2000, dated 2002).
# System: cancer-carrying mice
smiles,measurement,value
CCCCCCCCCCCCCCCCCCCCCCCCCC(=O)N[C@@H](CO[C@H]1O[C@H](CO)[C@H](O)[C@H](O)[C@H]1O)[C@H](O)[C@H](O)CCCCCCCCCCCCCC [α-galactosylceramide],activation of NKT cells,NKT cells are activated
same,elimination of cancer,elimination of cancer is not observed
same,metastasis of the cancer,metastasis of the cancer is suppressed
